In patent publication US20100056526A1, “HETEROMONOCYCLIC COMPOUND AND USE THEREOF” (Takeda Pharmaceutical Company Limited, priority 2006, published 2010):

Columns and labels:
human AT1 receptor = biological target: T1, human AT1 receptor (Homo sapiens, UniProt P30556); experiment: Binding assay using human AT1 receptor-expressing CHO-K1 cell membrane fraction ([125I]-angiotensin II); details: 22.5 pM [125I]-angiotensin II, 9 μg AT1 membrane, 1 hr room temperature; read-out: AT1 receptor binding inhibitory action (IC50 (nM))
T1 construct: expressed in transfected cells; host or cells: CHO-K1
T1 sequence (P30556 1-359): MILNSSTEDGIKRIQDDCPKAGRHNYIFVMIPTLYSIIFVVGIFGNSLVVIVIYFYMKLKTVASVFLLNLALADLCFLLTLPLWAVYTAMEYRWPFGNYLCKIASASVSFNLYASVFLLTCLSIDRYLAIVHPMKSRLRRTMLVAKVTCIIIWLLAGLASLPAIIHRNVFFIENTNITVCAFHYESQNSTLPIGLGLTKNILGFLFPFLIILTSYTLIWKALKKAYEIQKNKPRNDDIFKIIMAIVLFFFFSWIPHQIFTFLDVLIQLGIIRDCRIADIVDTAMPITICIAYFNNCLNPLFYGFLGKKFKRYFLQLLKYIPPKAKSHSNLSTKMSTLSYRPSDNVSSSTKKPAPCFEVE
Experimental: The membrane fraction for human AT1 receptor binding assay was prepared as follows. CHO-K1 cell capable of stable expression of human AT1 receptor was cultured, recovered, suspended in homogenize buffer (10 mM NaHCO3 (pH 7.4), 5 mM EDTA, 1×Complete EDTA free) [manufactured by Roche, Switzerland], and homogenized. The homogenate was centrifuged at low-speed (900×g, 10 min, 4° C.), and the supernatant was recovered and ultracentrifuged (90,000×g, 1 hr, 4° C.). The supernatant was discarded, and the pellets were resuspended in resuspension buffer (50 mM Tris (pH 7.4), 1 mM EDTA, 1×Complete EDTA free).
The binding assay was performed in the presence of 22.5 pM [^125I]-angiotensin II [manufactured by PerkinElmer, USA], 9 μg of AT1 membrane and test compound in 100 μL (total reaction volume) of reaction buffer (50 mM Tris (pH 7.4), 10 mM MgCl2 supplemented or not supplemented with 0.3 mg/mL fatty acid-free bovine serum albumin [manufactured by Wako Pure Chemical Industries, Ltd., Japan]). The reaction mixture was incubated in 96 well polypropylene plate for 1 hr at room temperature, and the reaction was quenched by rapid filtration (96 well cell harvester) through a GF/C filter treated with wash buffer (50 mM Tris (pH 7.4)). Subsequently, the filter was washed 5 times with 0.3 mL of ice-cooled wash buffer. The filter was air-dried, and [^125I]-angiotensin II binding radioactivity was assayed with Top Count scintillation counter. Total binding was measured in the presence of 1% DMSO and nonspecific binding was measured in the presence of 1 μM CV-11974. The binding data was analyzed by GraphPad Prism program and the IC50 value (compound concentration showing 50% of the maximum value of inhibition percent) of the test compound was calculated.

PPARγ = biological target: T2, PPARγ (Homo sapiens, UniProt P37231); experiment: Evaluation of PPARγ activating action (luciferase reporter in PPARγ:RXRα:4ERPP/CHO-K1 cells); format: cell-based; details: CHO-K1, 24 h; test compound 10^−6 M; luciferase activity relative to control compound X (1 μM) = 100%, non-administration group = 0%; read-out: PPARγ activating action (activation % (10^−6 M))
T2 construct: expressed in transfected cells; host or cells: CHO-K1
T2 sequence (P37231 1-477 isoform P37231-2): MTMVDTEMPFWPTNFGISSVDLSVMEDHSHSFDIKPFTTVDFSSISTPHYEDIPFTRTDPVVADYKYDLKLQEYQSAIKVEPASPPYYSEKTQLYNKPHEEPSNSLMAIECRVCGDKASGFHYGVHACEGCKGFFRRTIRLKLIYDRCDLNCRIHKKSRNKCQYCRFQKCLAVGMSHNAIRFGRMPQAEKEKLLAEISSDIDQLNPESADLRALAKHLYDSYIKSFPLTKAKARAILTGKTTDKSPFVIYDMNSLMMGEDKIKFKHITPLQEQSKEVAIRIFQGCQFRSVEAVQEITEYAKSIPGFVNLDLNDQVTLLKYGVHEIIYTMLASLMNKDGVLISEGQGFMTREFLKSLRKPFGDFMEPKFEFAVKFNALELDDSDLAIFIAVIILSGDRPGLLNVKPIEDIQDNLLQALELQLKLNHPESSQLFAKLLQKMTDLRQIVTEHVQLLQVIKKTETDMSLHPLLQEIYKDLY
T2 sequence (P19793 1-462 partner): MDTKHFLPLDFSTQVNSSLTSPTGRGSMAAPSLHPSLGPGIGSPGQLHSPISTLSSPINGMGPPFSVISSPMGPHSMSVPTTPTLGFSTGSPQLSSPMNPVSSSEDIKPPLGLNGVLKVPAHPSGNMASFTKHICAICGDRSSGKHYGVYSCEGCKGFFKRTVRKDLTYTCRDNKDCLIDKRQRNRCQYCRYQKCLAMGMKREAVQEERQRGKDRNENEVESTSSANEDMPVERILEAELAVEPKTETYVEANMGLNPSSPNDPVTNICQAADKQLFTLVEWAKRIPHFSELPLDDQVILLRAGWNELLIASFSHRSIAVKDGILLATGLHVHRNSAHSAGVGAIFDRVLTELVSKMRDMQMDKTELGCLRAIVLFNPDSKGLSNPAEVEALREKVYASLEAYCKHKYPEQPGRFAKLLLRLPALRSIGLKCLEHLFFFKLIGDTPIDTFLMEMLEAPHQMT
Experimental: PPARγ:RXRα:4ERPP/CHO-K1 cells obtained in the following Reference Example 5 were cultured in F12 medium [manufactured by INVITROGEN, USA] containing 10% fetal bovine serum [manufactured by MOREGATE, Australia], seeded in a 96-well half area white plate [manufactured by Corning Coster Corporation, USA] at the density of 5×10^3 cells/well and cultured in a CO2 gas incubator at 37° C. overnight.
Then the medium was removed from the 96-well half area white plate, 45 μl of Ham's F12 medium containing 0.1% fatty acid-free bovine serum albumin (BSA) and 5 μl of test compound were added, and the cells were cultured in a CO2 gas incubator at 37° C. for 1 day. The medium was removed and 20 μl of PicaGene 7.5 [manufactured by TOYO INK MFG. CO., LTD.,.Japan] diluted 2-fold with HBSS (HANKS' BALANCED SALT SOLUTION) [manufactured by BIO WHITTAKER, USA] was added. After stirring, the luciferase activity was determined using 1420 ARVO Multilabel Counter [manufactured by PerkinElmer, USA].
The percent (%) was calculated from the luciferase activity of each test compound when the luciferase activity of the control compound (compound X: 5-[3-(4-{[2-(2-furyl)-5-methyl-1,3-oxazol-4-yl]methoxy}-3-methoxyphenyl)propyl]-1,3-oxazolidine-2,4-dione) (1 μM) was 100% and that of the test compound non-administration group was 0%.
A CHO-K1 cell cultured in a 150 cm^2 cell culture flask [manufactured by Corning Costar Corporation, USA] containing Ham's F12 medium [manufactured by INVITROGEN, USA] supplemented with 10% fetal bovine serum [manufactured by INVITROGEN, USA] was scraped by treating with 0.5 g/L trypsin-0.2 g/L EDTA (ethylenediaminetetraacetic acid) [manufactured by Life Technologies, Inc., USA], and then the cell was washed with PBS (Phosphate-buffered saline) [manufactured by INVITROGEN, USA], centrifuged (1000 rpm, 5 minutes) and suspended in PBS. Subsequently, DNA was introduced into the cell under the conditions shown below using GENE PULSER [manufactured by Bio-Rad Laboratories, USA].
Namely, to a cuvette having a 0.4 cm gap were added 8×10^6 cells and 10 μg of plasmid pVgRXR2-hPPARγ obtained in Reference Example 4 and 10 μg of reporter plasmid pGL3-4ERPP-TK neo obtained in Reference Example 3, which was subjected to electroporation at the voltage of 0.25 kV under the capacitance of 960 μF. Subsequently, the cell was transferred into a F12 medium containing 10% fetal bovine serum and cultured for 24 hours, and then the cell was scraped again and centrifuged, and then suspended in Ham's F12 medium containing 10% fetal bovine serum supplemented with 500 μg/ml of Geneticin [manufactured by INVITROGEN, USA] and 250 μg/ml of Zeocin [manufactured by INVITROGEN, USA]. The obtained suspension was diluted to the density of 10^4 cells/ml and inoculated in a 96-well plate [manufactured by Corning Costar Corporation, USA], which was cultured in a CO2 gas incubator at 37° C., whereby obtaining a Geneticin- and Zeocin-resistant transformant.
Subsequently, after the transformant cell line thus obtained was cultured in a 24-well plate [manufactured by Corning Costar Corporation, USA], a cell line in which the luciferase was expressed and induced, i.e., PPARγ:RXRα:4ERPP/CHO-K1 cell was selected by the addition of 10 μM pioglitazone hydrochloride.

Row | IC50 (human AT1 receptor) | activation at 1 µM (PPARγ) | Structure (SMILES)
1 | 1.7 nM | 52.1% | CCCCc1nc(C2CC2)n(-c2ccc3c(c2)CCO3)c(=O)c1Cc1ccc(-c2ccccc2-c2noc(=O)[nH]2)cc1 [Example 112, 6-butyl-2-cyclopropyl-3-(2,3-dihydro-1-benzofuran-5-yl)-5-{[2′-(5-oxo-4,5-dihydro-1,2,4-oxadiazol-3-yl)biphenyl-4-yl]methyl}pyrimidin-4(3H)-one]
2 | 1.8 nM | 50.2% | CCCCc1nc(C(C)C)n(-c2ccc3c(c2)CCO3)c(=O)c1Cc1ccc(-c2ccccc2-c2noc(=O)[nH]2)cc1 [Example 118, 6-butyl-3-(2,3-dihydro-1-benzofuran-5-yl)-2-isopropyl-5-{[2′-(5-oxo-4,5-dihydro-1,2,4-oxadiazol-3-yl)biphenyl-4-yl]methyl}pyrimidin-4(3H)-one]
3 | 1.9 nM | 24.3% | CCCCc1nc(C)n(-c2ccc3c(c2)CC(C)(C)O3)c(=O)c1Cc1ccc(-c2ccccc2-c2nsc(=O)[nH]2)cc1 [Example 128, 6-butyl-3-(2,2-dimethyl-2,3-dihydro-1-benzofuran-5-yl)-2-methyl-5-{[2′-(5-oxo-4,5-dihydro-1,2,4-thiadiazol-3-yl)biphenyl-4-yl]methyl}pyrimidin-4(3H)-one]
4 | 2.2 nM | 34.2% | CCCc1nc(C)n(-c2ccc3c(c2)CCC(C)(C)O3)c(=O)c1Cc1ccc(-c2ccccc2-c2noc(=O)[nH]2)cc1 [Example 131, 3-(2,2-dimethyl-3,4-dihydro-2H-chromen-6-yl)-2-methyl-5-{[2′-(5-oxo-4,5-dihydro-1,2,4-oxadiazol-3-yl)biphenyl-4-yl]methyl}-6-propylpyrimidin-4(3H)-one]
5 | 2.9 nM | 32.9% | CCCCc1nn(-c2ccc3c(c2)CC(C)(C)O3)c(=O)n1Cc1ccc(-c2ccccc2-c2noc(=O)[nH]2)cc1 [Example 136, 3-(4′-{[3-butyl-1-(2,2-dimethyl-2,3-dihydro-1-benzofuran-5-yl)-5-oxo-1,5-dihydro-4H-1,2,4-triazol-4-yl]methyl}biphenyl-2-yl)-1,2,4-oxadiazol-5(4H)-one]
6 | 1.8 nM | 38.3% | CCCc1nc(C)n(-c2ccc(OC(C)C)cc2)c(=O)c1Cc1ccc(-c2ccccc2-c2noc(=O)[nH]2)cc1F [Example 141, 5-{[3-fluoro-2′-(5-oxo-4,5-dihydro-1,2,4-oxadiazol-3-yl)biphenyl-4-yl]methyl}-3-(4-isopropoxyphenyl)-2-methyl-6-propylpyrimidin-4(3H)-one]
7 | 1.7 nM | 32.8% | CCCc1nc(C)n(-c2ccc3c(c2)C=CC(C)(C)O3)c(=O)c1Cc1ccc(-c2ccccc2-c2noc(=O)[nH]2)cc1 [Example 142, 3-(2,2-dimethyl-2H-chromen-6-yl)-2-methyl-5-{[2′-(5-oxo-4,5-dihydro-1,2,4-oxadiazol-3-yl)biphenyl-4-yl]methyl}-6-propylpyrimidin-4(3H)-one]
8 | 1.5 nM | 22.7% | CCCc1nc(C)n(-c2ccc3c(c2)C(O)CC(C)(C)O3)c(=O)c1Cc1ccc(-c2ccccc2-c2noc(=O)[nH]2)cc1 (stereo not drawn) [Example 144, 3-(4-hydroxy-2,2-dimethyl-3,4-dihydro-2H-chromen-6-yl)-2-methyl-5-{[2′-(5-oxo-4,5-dihydro-1,2,4-oxadiazol-3-yl)biphenyl-4-yl]methyl}-6-propylpyrimidin-4(3H)-one]
9 | 1.8 nM | 36.5% | CCCc1nc(C)n(-c2ccc3c(c2)C(=O)CC(C)(C)O3)c(=O)c1Cc1ccc(-c2ccccc2-c2noc(=O)[nH]2)cc1 [Example 145, 3-(2,2-dimethyl-4-oxo-3,4-dihydro-2H-chromen-6-yl)-2-methyl-5-{[2′-(5-oxo-4,5-dihydro-1,2,4-oxadiazol-3-yl)biphenyl-4-yl]methyl}-6-propylpyrimidin-4(3H)-one]
